Laboratory results published in ChEMBL document CHEMBL5505958, “Optimization of sequence and chiral content enhances therapeutic potential of tilapia piscidin peptides” (Eur J Med Chem, 2024).
In brackets after ≈: the same amount, converted by molar mass.

Assays:
[1] = test system: Klebsiella oxytoca; assay: Antibacterial activity against Klebsiella oxytoca 13985 assessed as inhibition of bacterial growth incubated for 16 to 20 hrs in presence of human serum; format: functional; conditions: time 16-20 hrs
[2] = test system: Acinetobacter baumannii; assay: Antibacterial activity against Acinetobacter baumannii 10591 assessed as inhibition of bacterial growth incubated for 16 to 20 hrs in presence of human serum; format: functional; conditions: time 16-20 hrs
[3] = test system: Klebsiella pneumoniae; assay: Bactericidal activity against Klebsiella pneumoniae BAA 2473 assessed as inhibition of bacterial growth in presence of 1 microg/ml of chymotrypsin (reference value: 1.56 to 3.13 microM); format: functional
[4] = test system: Klebsiella pneumoniae; assay: Antibacterial activity against Klebsiella pneumoniae BAA 2473 assessed as inhibition of bacterial growth in presence of 0.1 microg/ml of trypsin (reference value: 1.56 to 3.13 microM); format: functional
[5] = test system: Klebsiella pneumoniae; assay: Antibacterial activity against Klebsiella pneumoniae BAA 2473 assessed as inhibition of bacterial growth incubated for 16 to 20 hrs; format: functional; conditions: time 16-20 hrs
[6] = test system: Klebsiella pneumoniae; assay: Antibacterial activity against Klebsiella pneumoniae TL 297 assessed as inhibition of bacterial growth incubated for 16 to 20 hrs in presence of human serum; format: functional; conditions: time 16-20 hrs
[7] = test system: Klebsiella pneumoniae; assay: Bactericidal activity against Klebsiella pneumoniae BAA 2473 assessed as inhibition of bacterial growth in presence of 0.1 microg/ml of chymotrypsin (reference value: 1.56 to 3.13 microM); format: functional
[8] = test system: Staphylococcus aureus; assay: Antibacterial activity against Staphylococcus aureus 10780 assessed as inhibition of bacterial growth incubated for 16 to 20 hrs in presence of human serum; format: functional; conditions: time 16-20 hrs
[9] = test system: Enterococcus faecium; assay: Antibacterial activity against Enterococcus faecium 10067 assessed as inhibition of bacterial growth incubated for 16 to 20 hrs; format: functional; conditions: time 16-20 hrs
[10] = test system: Pseudomonas aeruginosa; assay: Bactericidal activity against Pseudomonas aeruginosa 19660 assessed as inhibition of bacterial growth incubated for 16 to 20 hrs in presence of human serum; format: functional; conditions: time 16-20 hrs
[11] = test system: Klebsiella pneumoniae; assay: Antibacterial activity against Klebsiella pneumoniae 10692 assessed as inhibition of bacterial growth incubated for 16 to 20 hrs; format: functional; conditions: time 16-20 hrs
[12] = test system: Escherichia coli; assay: Bactericidal activity against Escherichia coli 10675 assessed as inhibition of bacterial growth incubated for 16 to 20 hrs; format: functional; conditions: time 16-20 hrs
[13] = test system: Yersinia enterocolitica; assay: Bactericidal activity against Yersinia enterocolitica 13999 assessed as inhibition of bacterial growth incubated for 16 to 20 hrs; format: functional; conditions: time 16-20 hrs
[14] = test system: Klebsiella pneumoniae; assay: Antibacterial activity against Klebsiella pneumoniae BAA 2473 assessed as inhibition of bacterial growth in presence of 10 microg/ml of pepsin (reference value: 1.56 to 3.13 microM); format: functional
[15] = test system: Vibrio vulnificus; assay: Bactericidal activity against Vibrio vulnificus 204 assessed as inhibition of bacterial growth incubated for 16 to 20 hrs in presence of human serum; format: functional; conditions: time 16-20 hrs
[16] = test system: Klebsiella aerogenes; assay: Antibacterial activity against Enterobacter aerogenes 15630 assessed as inhibition of bacterial growth incubated for 16 to 20 hrs; format: functional; conditions: time 16-20 hrs
[17] = test system: Klebsiella pneumoniae; assay: Bactericidal activity against Klebsiella pneumoniae BAA 2473 assessed as inhibition of bacterial growth in presence of 1 microg/ml of trypsin (reference value: 1.56 to 3.13 microM); format: functional
[18] = test system: Klebsiella pneumoniae; assay: Antibacterial activity against Klebsiella pneumoniae BAA 2473 assessed as inhibition of bacterial growth in presence of 0.1 microg/ml of proteinase K (reference value: 1.56 to 3.13 microM); format: functional
[19] = test system: Vibrio vulnificus; assay: Bactericidal activity against Vibrio vulnificus 204 assessed as inhibition of bacterial growth incubated for 16 to 20 hrs; format: functional; conditions: time 16-20 hrs
[20] = test system: Enterococcus faecium; assay: Antibacterial activity against Enterococcus faecium 10067 assessed as inhibition of bacterial growth incubated for 16 to 20 hrs in presence of human serum; format: functional; conditions: time 16-20 hrs
[21] = test system: Klebsiella pneumoniae; assay: Antibacterial activity against Klebsiella pneumoniae BAA 2473 assessed as inhibition of bacterial growth in presence of 0.1 microg/ml of pepsin (reference value: 1.56 to 3.13 microM); format: functional
[22] = test system: Acinetobacter baumannii; assay: Antibacterial activity against Acinetobacter baumannii 10591 assessed as inhibition of bacterial growth incubated for 16 to 20 hrs; format: functional; conditions: time 16-20 hrs
[23] = test system: Yersinia enterocolitica; assay: Antibacterial activity against Yersinia enterocolitica 13999 assessed as inhibition of bacterial growth incubated for 16 to 20 hrs; format: functional; conditions: time 16-20 hrs
[24] = test system: Klebsiella oxytoca; assay: Bactericidal activity against Klebsiella oxytoca 13985 assessed as inhibition of bacterial growth incubated for 16 to 20 hrs in presence of human serum; format: functional; conditions: time 16-20 hrs
[25] = test system: Salmonella typhimurium; assay: Bactericidal activity against Salmonella typhimurium DT104 assessed as inhibition of bacterial growth incubated for 16 to 20 hrs; format: functional, Salmonella enterica subsp. enterica serovar Typhimurium; conditions: Salmonella enterica, time 16-20 hrs
[26] = test system: Enterococcus faecalis; assay: Bactericidal activity against Enterococcus faecalis 10066 assessed as inhibition of bacterial growth incubated for 16 to 20 hrs; format: functional; conditions: time 16-20 hrs
[27] = test system: Klebsiella pneumoniae; assay: Bactericidal activity against Klebsiella pneumoniae BAA 2473 assessed as inhibition of bacterial growth in presence of 10 microg/ml of pepsin (reference value: 1.56 to 3.13 microM); format: functional
[28] = test system: Staphylococcus haemolyticus; assay: Bactericidal activity against Staphylococcus haemolyticus 15237 assessed as inhibition of bacterial growth incubated for 16 to 20 hrs; format: functional; conditions: time 16-20 hrs
[29] = test system: Klebsiella pneumoniae; assay: Antibacterial activity against Klebsiella pneumoniae BAA 2473 assessed as inhibition of bacterial growth in presence of 1 microg/ml of proteinase K (reference value: 1.56 to 3.13 microM); format: functional
[30] = test system: Klebsiella pneumoniae; assay: Bactericidal activity against Klebsiella pneumoniae BAA 2473 assessed as inhibition of bacterial growth in presence of 1 microg/ml of proteinase K (reference value: 1.56 to 3.13 microM); format: functional
[31] = test system: Klebsiella pneumoniae; assay: Bactericidal activity against Klebsiella pneumoniae BAA 2473 assessed as inhibition of bacterial growth in presence of 1 microg/ml of pepsin (reference value: 1.56 to 3.13 microM); format: functional
[32] = test system: Klebsiella pneumoniae; assay: Bactericidal activity against Klebsiella pneumoniae BAA 2473 assessed as inhibition of bacterial growth in presence of 10 microg/ml of proteinase K (reference value: 1.56 to 3.13 microM); format: functional
[33] = test system: Rhizopus arrhizus; assay: Antifungal activity against Rhizopus oryzae 34550 assessed as inhibition of fungal growth incubated for 16 to 20 hrs; format: functional; conditions: time 16-20 hrs
[34] = test system: Rhizopus arrhizus; assay: Antifungal activity against Rhizopus oryzae 34550 assessed as inhibition of fungal growth incubated for 16 to 20 hrs in presence of human serum; format: functional; conditions: time 16-20 hrs
[35] = test system: Salmonella enterica; assay: Antibacterial activity against Salmonella enterica 15455 assessed as inhibition of bacterial growth incubated for 16 to 20 hrs; format: functional; conditions: time 16-20 hrs
[36] = test system: Klebsiella pneumoniae; assay: Bactericidal activity against Klebsiella pneumoniae BAA 2473 assessed as inhibition of bacterial growth incubated for 16 to 20 hrs; format: functional; conditions: time 16-20 hrs
[37] = test system: Klebsiella pneumoniae; assay: Bactericidal activity against Klebsiella pneumoniae TL 297 assessed as inhibition of bacterial growth incubated for 16 to 20 hrs in presence of human serum; format: functional; conditions: time 16-20 hrs
[38] = test system: Staphylococcus haemolyticus; assay: Antibacterial activity against Staphylococcus haemolyticus 15237 assessed as inhibition of bacterial growth incubated for 16 to 20 hrs; format: functional; conditions: time 16-20 hrs
[39] = test system: Salmonella typhimurium; assay: Bactericidal activity against Salmonella typhimurium DT104 assessed as inhibition of bacterial growth incubated for 16 to 20 hrs in presence of human serum; format: functional, Salmonella enterica subsp. enterica serovar Typhimurium; conditions: Salmonella enterica, time 16-20 hrs
[40] = test system: Acinetobacter baumannii; assay: Bactericidal activity against Acinetobacter baumannii 10591 assessed as inhibition of bacterial growth incubated for 16 to 20 hrs; format: functional; conditions: time 16-20 hrs

| Compound | MIC [1] [µM] | MIC [2] [µM] | MBC [3] [µM] | MIC [4] [µM] | MIC [5] [µM] | MIC [6] [µM] | MBC [7] [µM] | MIC [8] [µM] | MIC [9] [µM] | MBC [10] [µM] | MIC [11] [µM] | MBC [12] [µM] | MBC [13] [µM] | MIC [14] [µM] | MBC [15] [µM] | MIC [16] [µM] | MBC [17] [µM] | MIC [18] [µM] | MBC [19] [µM] | MIC [20] [µM] | further results |
| --- | --- | --- | --- | --- | --- | --- | --- | --- | --- | --- | --- | --- | --- | --- | --- | --- | --- | --- | --- | --- | --- |
| H-FIHHIIGGLFSAGKAIHRLIRRRRR-OH | > 100 | 100 | > 100 | 1.56 | 1.56 | > 100 | 1.56 | > 100 | 0.39 | 100 | 0.78 | 6.25 | 3.13 | > 100 | > 100 | 0.78 | > 100 | 1.56 | 3.13 | 100 | MIC [21]: 1.56 µM; MIC [22]: 1.56 µM; MIC [23]: 3.13 µM; MBC [24]: > 100 µM; MBC [25]: 6.25 µM; MBC [26]: 3.13 µM; MBC [27]: > 100 µM; MBC [28]: 1.56 µM; MIC [29]: > 100 µM; MBC [30]: > 100 µM; MBC [31]: > 100 µM; MBC [32]: > 100 µM; MIC [33]: 1.56 µM; MIC [34]: > 25 µM; MIC [35]: 3.13 µM; MBC [36]: 3.13 µM; MBC [37]: > 100 µM; MIC [38]: 1.56 µM; MBC [39]: > 100 µM; MBC [40]: 1.56 µM |
| CC(C)C[C@H](NC(=O)[C@@H](C)NC(=O)[C@@H](CCCCN)NC(=O)[C@H](CC(C)C)NC(=O)[C@@H](CC(C)C)NC(=O)[C@@H](CCCCN)NC(=O)[C@H](CCCCN)NC(=O)[C@@H](CC(C)C)NC(=O)[C@H](N)Cc1ccccc1)C(=O)N[C@H](Cc1ccccc1)C(=O)N[C@H](CO)C(=O)N[C@@H](C)C(=O)N1CCC[C@@H]1C(=O)N[C@H](CCCCN)C(=O)N[C@@H](C)C(=O)N[C@H](CC(C)C)C(=O)N[C@H](CCCCN)C(=O)N[C@@H](CCCNC(=N)N)C(=O)N[C@H](CC(C)C)C(=O)N[C@H](CC(C)C)C(=O)N[C@@H](CCCNC(=N)N)C(=O)N[C@H](CCCNC(=N)N)C(=O)N[C@H](CCCNC(=N)N)C(=O)N[C@@H](CCCNC(=N)N)C(=O)N[C@@H](CCCNC(=N)N)C(=O)O | 6.25 | 1.56 | 0.78 | 0.78 | 0.78 (≈ 2.4 µg/mL) | 1.56 | 0.78 | 6.25 | 3.13 (≈ 9.64 µg/mL) | 3.13 | 6.25 (≈ 19.2 µg/mL) | 1.56 (≈ 4.8 µg/mL) | 3.13 (≈ 9.64 µg/mL) | 0.78 | 12.5 | 3.13 (≈ 9.64 µg/mL) | 1.56 | 0.78 | 12.5 (≈ 38.5 µg/mL) | 100 | MIC [21]: 0.78 µM; MIC [22]: 3.13 µM (≈ 9.64 µg/mL); MIC [23]: 3.13 µM (≈ 9.64 µg/mL); MBC [24]: 6.25 µM; MBC [25]: 3.13 µM (≈ 9.64 µg/mL); MBC [26]: 12.5 µM (≈ 38.5 µg/mL); MBC [27]: 1.56 µM; MBC [28]: 1.56 µM (≈ 4.8 µg/mL); MIC [29]: 0.78 µM; MBC [30]: 0.78 µM; MBC [31]: 1.56 µM; MBC [32]: 1.56 µM; MIC [33]: 1.56 µM (≈ 4.8 µg/mL); MIC [34]: 6.25 µM; MIC [35]: 3.13 µM (≈ 9.64 µg/mL); MBC [36]: 25 µM (≈ 77 µg/mL); MBC [37]: 1.56 µM; MIC [38]: 1.56 µM (≈ 4.8 µg/mL); MBC [39]: 6.25 µM; MBC [40]: 3.13 µM (≈ 9.64 µg/mL) |
